Drawing on patent publication US20240287138A1, “CYCLIC PEPTIDES FOR INHIBITING TNF RECEPTOR 1 ACTIVITY” (Merck Sharp & Dohme LLC, priority 2023, published 2024), this text covers IC50 for 6 compounds.

The IC50 is the concentration that inhibits the measured activity by half.

Numbered stars: 1 amine (or outer) side, 2 acyl side, 3 side chain; on linkers, the order of the positions; unused ones are H or OH. Bridge positions count the residues as written; N and C are the ends. Square brackets hold non-standard residues; d marks the D form. Peptide text beside a SMILES is read from it. * marks the point of attachment. Trp(βS-Me,7-OMe) = COc1cccc2c([C@H](C)[C@H](N)C(=O)O)c[nH]c12; X24 = O=C(O)c1ccc([C@@H](O)[C@H](N[*:1])C(=O)[*:2])cc1; X28 = NC(=O)c1ccc([C@H](O)[C@H](N[*:1])C(=O)[*:2])cc1; Trp(7-CN) = N#Cc1cccc2c(C[C@H](N)C(=O)O)c[nH]c12; Trp(7-Cl) = N[C@@H](Cc1c[nH]c2c(Cl)cccc12)C(=O)O; X29 = NC(=O)Cc1cccc(C[C@H](N[*:1])C(=O)[*:2])c1; Phe(4-CONH2) = NC(=O)c1ccc(C[C@H](N)C(=O)O)cc1; Phe(4-COOH) = N[C@@H](Cc1ccc(C(=O)O)cc1)C(=O)O; Trp(7-aza) = N[C@@H](Cc1c[nH]c2ncccc12)C(=O)O; Pip(5R-OH) = O=C(O)[C@@H]1CC[C@@H](O)CN1; X1 = O=C([C@@H]1CC[C@H](N[*:1])C1)[*:2]; X19 = O=C([C@H](Cc1ccncn1)N[*:1])[*:2]; Gly(N(CH2)3COOH) = O=C(O)CCCNCC(=O)O; Pip(4-aza) = O=C(O)[C@@H]1CNCCN1; 4Pal = N[C@@H](Cc1ccncc1)C(=O)O; NMeE = CN[C@@H](CCC(=O)O)C(=O)O; dHyp = O=C(O)[C@H]1C[C@H](O)CN1; Pip = O=C(O)[C@@H]1CCCCN1; αMeS = C[C@](N)(CO)C(=O)O; Nle = CCCC[C@H](N)C(=O)O; Ethyl(2-NH2) = NCC*; Sar = CNCC(=O)O; X22 = C1CC1C*

This assay deals with T1, TNFα-induced NF-κB signal transduction pathway (TNFR1 signaling) in THP-1 cells (Homo sapiens, UniProt P19438).
T1 sequence (P19438 30-455): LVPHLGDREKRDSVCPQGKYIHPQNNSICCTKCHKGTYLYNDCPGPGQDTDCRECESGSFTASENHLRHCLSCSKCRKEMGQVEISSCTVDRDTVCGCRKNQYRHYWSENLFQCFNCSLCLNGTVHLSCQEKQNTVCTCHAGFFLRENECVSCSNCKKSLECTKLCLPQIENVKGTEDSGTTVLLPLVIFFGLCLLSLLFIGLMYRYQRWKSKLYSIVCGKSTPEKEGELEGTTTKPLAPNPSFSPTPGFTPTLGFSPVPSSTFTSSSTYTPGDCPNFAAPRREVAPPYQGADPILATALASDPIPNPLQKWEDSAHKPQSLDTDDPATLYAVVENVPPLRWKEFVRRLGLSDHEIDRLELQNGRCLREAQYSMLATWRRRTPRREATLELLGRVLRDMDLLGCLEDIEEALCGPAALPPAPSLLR
The experiment in a line: THP-1 Lucia NF-κB reporter cell assay, inhibition of TNFα-induced NF-κB signaling. Type of assay: cell-based. As to conditions: THP-1 NF-κB Lucia reporter cells, 10 ng/mL TNFα, 16-18 h, secreted luciferase; read-out: THP-1 IC50. The gist of the method:
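Read-out: secreted Lucia luciferase luminescence (QUANTI-Luc) from supernatant after 16-18 h, 37 °C, 10 ng/mL rhTNFα. Peptide pretreatment 1 h at 37 °C; 20,000 cells/well, selection antibiotics omitted. IC50 via 4-parameter logistic model against min/max controls.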
As to `COc1cccc2c([C@H](C)[C@@H]3NC(=O)CN(C)C(=O)[C@H](Cc4ccc(C(=O)O)cc4)NC(=O)[C@H](Cc4ccc(C(N)=O)cc4)NC(=O)[C@](C)(CO)NC(=O)[C@H](Cc4c[nH]c5c(Cl)cccc45)NC(=O)[C@H](Cc4ccc(C(=O)O)cc4)NC(=O)[C@H](CC(N)=O)NC(=O)[C@H]4C[C@H](O)CN4C(=O)[C@H](Cc4c[nH]c5ncccc45)NC(=O)[C@@H]4CC[C@@H](O)CN4C(=O)[C@H](Cc4ccncc4)NC(=O)[C@H](COCCN)NC(=O)[C@@H]4CC[C@@H](C4)NC3=O)c[nH]c12` [SEQ ID NO. 148] (cyclo([4Pal][Pip(5R-OH)][Trp(7-aza)][dHyp]N[Phe(4-COOH)][Trp(7-Cl)][αMeS][Phe(4-CONH2)][Phe(4-COOH)][Sar][Trp(βS-Me,7-OMe)][X1]S(Ethyl(2-NH2)))), the IC50 is 2.8 nM.

As to `COc1cccc2c([C@H](C)[C@@H]3NC(=O)CN(C)C(=O)[C@H](Cc4ccc(C(=O)O)cc4)NC(=O)[C@H](Cc4ccc(C(N)=O)cc4)NC(=O)[C@](C)(CO)NC(=O)[C@H](Cc4c[nH]c5c(C#N)cccc45)NC(=O)[C@H](Cc4ccc(C(=O)O)cc4)NC(=O)[C@H](CC(N)=O)NC(=O)[C@H]4C[C@H](O)CN4C(=O)[C@H](Cc4c[nH]c5ncccc45)NC(=O)[C@@H]4CC[C@@H](O)CN4C(=O)[C@H](Cc4ccncc4)NC(=O)[C@H](COCC4CC4)NC(=O)[C@@H]4CC[C@@H](C4)NC3=O)c[nH]c12` [SEQ ID NO. 149] (cyclo([4Pal][Pip(5R-OH)][Trp(7-aza)][dHyp]N[Phe(4-COOH)][Trp(7-CN)][αMeS][Phe(4-CONH2)][Phe(4-COOH)][Sar][Trp(βS-Me,7-OMe)][X1]S(X22))), the IC50 was determined as 1.3 nM.

As for `CCCC[C@@H]1NC(=O)[C@@H]2CC[C@@H](C2)NC(=O)[C@H]([C@@H](C)c2c[nH]c3c(OC)cccc23)NC(=O)CN(C)C(=O)[C@H](Cc2cccc(CC(N)=O)c2)NC(=O)[C@H](Cc2ccc(C(=O)O)cc2)NC(=O)[C@](C)(CO)NC(=O)[C@H](Cc2c[nH]c3c(Cl)cccc23)NC(=O)[C@H](Cc2ccncc2)NC(=O)[C@H](CC(N)=O)NC(=O)[C@H](CCC(=O)O)N(C)C(=O)[C@H](Cc2c[nH]c3ccccc23)NC(=O)[C@@H]2CNCCN2C(=O)[C@H](Cc2ccncc2)NC1=O` [SEQ ID NO. 153] (cyclo([4Pal][Trp(7-Cl)][αMeS][Phe(4-COOH)][X29][Sar][Trp(βS-Me,7-OMe)][X1][Nle][4Pal][Pip(4-aza)]W[NMeE]N)), the IC50 came out at 2.6 nM.

For `CCCC[C@@H]1NC(=O)[C@@H]2CC[C@@H](C2)NC(=O)[C@H]([C@@H](C)c2c[nH]c3c(OC)cccc23)NC(=O)CN(C)C(=O)[C@H]([C@H](O)c2ccc(C(=O)O)cc2)NC(=O)[C@H]([C@@H](O)c2ccc(C(N)=O)cc2)NC(=O)[C@](C)(CO)NC(=O)[C@H](Cc2c[nH]c3c(C#N)cccc23)NC(=O)[C@H](Cc2ccncc2)NC(=O)[C@H](CC(N)=O)NC(=O)[C@H]2C[C@H](O)CN2C(=O)[C@H](Cc2c[nH]c3ccccc23)NC(=O)[C@@H]2CC[C@@H](O)CN2C(=O)[C@H](Cc2ccncc2)NC1=O` [SEQ ID NO. 155] (cyclo([4Pal][Trp(7-CN)][αMeS][X28][X24][Sar][Trp(βS-Me,7-OMe)][X1][Nle][4Pal][Pip(5R-OH)]W[dHyp]N)), the IC50 came to 0.9 nM.

For the compound `CCCC[C@@H]1NC(=O)CSC[C@@H](C(N)=O)NC(=O)[C@H]([C@@H](C)c2c[nH]c3c(OC)cccc23)NC(=O)CN(C)C(=O)[C@H](Cc2ccc(O)cc2)NC(=O)[C@H](Cc2ccc(C(=O)O)cc2)NC(=O)[C@](C)(CO)NC(=O)[C@H](Cc2c[nH]c3c(Cl)cccc23)NC(=O)[C@H](Cc2ccncc2)NC(=O)[C@H](CC(N)=O)NC(=O)CN(CCCC(=O)O)C(=O)[C@H](Cc2c[nH]c3ncccc23)NC(=O)[C@@H]2CCCCN2C(=O)[C@H](Cc2ccncc2)NC1=O` [SEQ ID NO. 157] ({CH2CO}-[Nle][4Pal][Pip][Trp(7-aza)][Gly(N(CH2)3COOH)]N[4Pal][Trp(7-Cl)][αMeS][Phe(4-COOH)]Y[Sar][Trp(βS-Me,7-OMe)]C-NH2; thioether N-14), the IC50 stood at 4 nM.

Consider `CCCC[C@@H]1NC(=O)[C@@H]2CC[C@@H](C2)NC(=O)[C@H]([C@@H](C)c2c[nH]c3c(OC)cccc23)NC(=O)CN(C)C(=O)[C@H](Cc2ccc(C(=O)O)cc2)NC(=O)[C@H](Cc2ccc(C(N)=O)cc2)NC(=O)[C@](C)(CO)NC(=O)[C@H](Cc2c[nH]c3c(Cl)cccc23)NC(=O)[C@H](Cc2ccncn2)NC(=O)[C@H](CC(N)=O)NC(=O)[C@H]2C[C@H](O)CN2C(=O)[C@H](Cc2c[nH]c3ncccc23)NC(=O)[C@@H]2CC[C@@H](O)CN2C(=O)[C@H](Cc2ccncc2)NC1=O` [SEQ ID NO. 159] (cyclo([4Pal][Pip(5R-OH)][Trp(7-aza)][dHyp]N[X19][Trp(7-Cl)][αMeS][Phe(4-CONH2)][Phe(4-COOH)][Sar][Trp(βS-Me,7-OMe)][X1][Nle])), for which the IC50 amounted to 0.8 nM.
